From US10039282B2, “Six-membered C—N-bonded aryl sulphide and aryl sulphoxide derivatives as pesticides” (BAYER CROPSCIENCE AKTIENGESELLSCHAFT, priority 2013, dated 2018)
Where two headings read alike, the source gives them in different places.

Legend:
Boophilus microplus = Boophilus microplus injection test; assay type: in vivo; conditions: 20 μg/animal, assessed after 7 days
Description: 1. Boophilus microplus—Injection Test
Solvent: dimethyl sulphoxide
To produce an appropriate active compound formulation, 10 mg of active compound are mixed with 0.5 ml of solvent and the concentrate is diluted with solvent to the desired concentration.
1 μl of the active compound solution is injected into the abdomen of 5 engorged adult female cattle ticks (Boophilus microplus). The animals are transferred into dishes and kept in a climate-controlled room.
The efficacy is assessed after 7 days by laying of fertile eggs. Eggs which are not visibly fertile are stored in a climate-controlled cabinet until the larvae hatch after about 42 days. An efficacy of 100% means that none of the ticks has laid any fertile eggs; 0% means that all the eggs are fertile.

Tetranychus urticae = Tetranychus urticae spray test, OP-resistant (bean leaf discs); assay type: in vivo; conditions: 500 g/ha, after 6 days
Description: 4. Tetranychus urticae—Spray Test, OP-Resistant
Solvent: 78.0 parts by weight of acetone
• 1.5 parts by weight of dimethylformamide Emulsifier: alkylaryl polyglycol ether
To produce further test concentrations, the preparation is diluted with emulsifier-containing water.
After 6 days, the efficacy in % is determined. 100% means that all the spider mites have been killed; 0% means that none of the spider mites have been killed.

[1] = log P by reversed-phase HPLC analogously to OECD Guideline 117; assay type: physicochemical; conditions: for logP (HCOOH): pH 2.7; for logP (neutral): pH 7.8
Description: The log P values were determined analogously to OECD Guideline 117 (EC Directive 92/69/EEC) by HPLC (high-performance liquid chromatography) using reversed-phase columns (C 18), by the following methods:
[a] The LC-MS determination in the acidic range is effected at pH 2.7 with 0.1% aqueous formic acid and acetonitrile (contains 0.1% formic acid) as eluents; linear gradient from 10% acetonitrile to 95% acetonitrile. log P^[…] is also referred to as log P(HCOOH). [b] LC-MS determination in the neutral range is effected at pH 7.8 with 0.001 molar aqueous ammonium hydrogencarbonate solution and acetonitrile as eluents; linear gradient from 10% acetonitrile to 95% acetonitrile. log P^[…] is also referred to as log P(neutral).
Calibration is effected with solutions of a homologous series of unbranched alkan-2-ones (having 3 to 16 carbon atoms) with known log P values (log P values determined on the basis of the retention times by linear interpolation between two successive alkanones).

[2] = reversed-phase C18 HPLC column, acidic range, pH 2.7, 0.1% aqueous formic acid/acetonitrile, read-out: logP (HCOOH)
[3] = reversed-phase C18 HPLC column, neutral range, pH 7.8, 0.001 molar aqueous ammonium hydrogencarbonate/acetonitrile, read-out: logP (neutral)
[4] = acidic range, pH 2.7, 0.1% aqueous formic acid/acetonitrile, read-out: logP (HCOOH)

logP (HCOOH) [1]	Structure (SMILES)	efficacy (spider mites killed) (Tetranychus urticae) [%]	further results
–	O=c1cc(C(F)(F)F)ncn1-c1cc([S+]([O-])CC(F)(F)F)c(Cl)cc1Cl (racemic) [Example 4]	100	efficacy (no fertile eggs laid) (Boophilus microplus): 100%
–	Cc1cc(F)c(-n2cnc(C3CC3)cc2=O)cc1[S+]([O-])CC(F)(F)F (racemic) [Example 7]	100	–
–	CCc1cc(=O)n(-c2cc([S+]([O-])CC(F)(F)F)c(C)cc2F)cn1 (racemic) [Example 10]	100	–
–	Cc1cc(C)c([S+]([O-])CC(F)(F)F)cc1-n1c(C)nc(C(F)(F)F)cc1=O (racemic) [Example 14]	100	–
–	CCc1cc(=O)n(-c2ccc(C)c([S+]([O-])CC(F)(F)F)c2)cn1 (racemic) [Example 17]	100	–
–	Cc1cc(F)c(-n2c(C)nc(C(F)(F)F)cc2=O)cc1[S+]([O-])CC(F)(F)F (racemic) [Example 19]	100	–
–	CCc1cc(=O)n(-c2cc([S+]([O-])CC(F)(F)F)c(C)cc2C)cn1 (racemic) [Example 24]	90	–
–	Cc1ccc(-n2cnccc2=O)cc1[S+]([O-])CC(F)(F)F (racemic) [Example 28]	90	–
–	O=c1cc(C(F)(F)F)ncn1-c1cc([S+]([O-])CC(F)(F)F)c(Cl)cc1F (racemic) [Example 29]	100	–
–	Cc1cc(C)c([S+]([O-])CC(F)(F)F)cc1-n1cnc(C2CC2)cc1=O (racemic) [Example 35]	90	–
–	Cc1cc(C)c([S+]([O-])CC(F)(F)F)cc1-n1cnc(C)c(C)c1=O (racemic) [Example 48]	90	–
–	Cc1ccc(-n2cnc(C(F)(F)F)cc2=O)cc1[S+]([O-])CC(F)(F)F (racemic) [Example 50]	100	efficacy (no fertile eggs laid) (Boophilus microplus): 100%
–	Cc1cc(F)c(-n2cnc(C(C)C)cc2=O)cc1[S+]([O-])CC(F)(F)F (racemic) [Example 52]	100	–
–	Cc1cc(F)c(-n2cnc(C(F)(F)F)cc2=O)cc1SCC(F)(F)F [Example 1, 3-{2-Fluoro-4-methyl-5-[(2,2,2-trifluoroethyl)sulphanyl]phenyl}-6-(trifluoromethyl)pyrimidin-4(3H)-one]	100	chromatographic logP [1, 2]: 3.42; chromatographic logP [1, 3]: 3.4
–	Cc1cc(F)c(-n2c(C)nc(C(F)(F)F)cc2=O)cc1SCC(F)(F)F [Example 8]	100	–
–	Cc1cc(C)c(-n2cnc(C)c(C)c2=O)cc1SCC(F)(F)F [Example 13]	100	–
–	O=c1cc(C(F)(F)F)ncn1-c1cc(SCC(F)(F)F)c(Br)cc1F [Example 15]	100	–
–	O=c1cc(C(F)(F)F)ncn1-c1cc(SCC(F)(F)F)c(Cl)cc1F [Example 16]	100	–
–	Cc1cc(=O)n(-c2cc(SCC(F)(F)F)c(C)cc2C)cn1 [Example 20]	100	–

logP (HCOOH) [1]	Structure (SMILES)	efficacy (spider mites killed) (Tetranychus urticae) [%]	further results
–	Cc1cc(F)c(-n2cnc(C(C)(F)F)cc2=O)cc1SCC(F)(F)F [Example 22]	100	efficacy (no fertile eggs laid) (Boophilus microplus): 100%
–	Cc1cc(C)c(-n2cnc(C3CC3)cc2=O)cc1SCC(F)(F)F [Example 23]	100	–
–	Cc1cc(F)c(-n2cnc(C(C)C)cc2=O)cc1SCC(F)(F)F [Example 31]	100	–
–	Cc1cc(F)c(-n2cnc(C(F)F)cc2=O)cc1SCC(F)(F)F [Example 32]	100	–
–	Cc1cc(C)c(-n2cnc(C(F)(F)C(F)(F)F)cc2=O)cc1SCC(F)(F)F [Example 36]	100	–
–	Cc1cc(F)c(-n2cnc(C3CC3)cc2=O)cc1SCC(F)(F)F [Example 37]	100	–
–	CCc1cc(=O)n(-c2cc(SCC(F)(F)F)c(C)cc2C)cn1 [Example 39]	100	–
–	CCc1cc(=O)n(-c2ccc(C)c(SCC(F)(F)F)c2)cn1 [Example 43]	90	–
–	Cc1ccc(-n2cnc(C(F)(F)F)cc2=O)cc1SCC(F)(F)F [Example 47]	100	efficacy (no fertile eggs laid) (Boophilus microplus): 100%
–	Cc1cc(C)c(-n2cnc(C(C)(F)F)cc2=O)cc1SCC(F)(F)F [Example 51]	100	–
–	O=c1cc(C(F)(F)F)ncn1-c1ccc(Cl)c(SCC(F)(F)F)c1 [Example 54]	100	–
–	CCc1cc(=O)n(-c2cc(SCC(F)(F)F)c(C)cc2F)cn1 [Example 57]	100	–
–	Cc1cc(Cl)c(-n2cnc(C(F)(F)F)cc2=O)cc1SCC(F)(F)F [Example 59]	100	efficacy (no fertile eggs laid) (Boophilus microplus): 100%
–	Cc1cc(F)c(NC(=O)/C=C(\N)C(F)(F)F)cc1SCC(F)(F)F [IIa-1, 3-Amino-4,4,4-trifluoro-N-{2-fluoro-4-methyl-5-[(2,2,2-trifluoroethyl)sulphanyl]phenyl}but-2-enamide]	–	chromatographic logP [1, 2]: 3.61; chromatographic logP [1, 3]: 3.6
–	Cc1cc(C)c(SCC(F)(F)F)cc1NC(=O)/C=C(\N)C(F)(F)F [IIa-2, 3-Amino-N-[2,4-dimethyl-5-(2,2,2-trifluoroethylsulphanyl)phenyl]-4,4,4-trilluorobut-2-enamide]	–	chromatographic logP [1, 2]: 3.63; chromatographic logP [1, 3]: 3.61
4.24	NC(=CC(=O)Nc1cc(SCC(F)(F)F)c(Cl)cc1Cl)C(F)(F)F [IIa-3]	–	logP (neutral) [1]: 4.13
3.83	NC(=CC(=O)Nc1cc(SCC(F)(F)F)c(Cl)cc1F)C(F)(F)F [IIa-4]	–	logP (neutral) [1]: 3.73
3.88	NC(=CC(=O)Nc1cc(SCC(F)(F)F)c(Br)cc1F)C(F)(F)F [IIa-5]	–	logP (neutral) [1]: 3.78
3.58	Cc1ccc(NC(=O)C=C(N)C(F)(F)F)cc1SCC(F)(F)F [IIa-6]	–	logP (neutral) [1]: 3.49

logP (HCOOH) [1]	Structure (SMILES)	efficacy (spider mites killed) (Tetranychus urticae) [%]	further results
3.66	NC(=CC(=O)Nc1ccc(Cl)c(SCC(F)(F)F)c1)C(F)(F)F [IIa-7]	–	logP (neutral) [1]: 3.65
4.05	Cc1cc(Cl)c(NC(=O)C=C(N)C(F)(F)F)cc1SCC(F)(F)F [IIa-8]	–	logP (neutral) [1]: 3.99
3.23	Cc1cc(F)c(NC(=O)C=C(N)C(F)F)cc1SCC(F)(F)F [IIa-9]	–	logP (neutral) [1]: 3.21
3.24	Cc1cc(C)c(SCC(F)(F)F)cc1NC(=O)C=C(N)C(F)F [IIa-10]	–	logP (neutral) [1]: 3.15
3.55	Cc1cc(F)c(NC(=O)C=C(N)C(C)(F)F)cc1SCC(F)(F)F [IIa-11]	–	logP (neutral) [1]: 3.49
3.52	Cc1cc(C)c(SCC(F)(F)F)cc1NC(=O)C=C(N)C(C)(F)F [IIa-12]	–	logP (neutral) [1]: 3.40
–	Cc1cc(F)c(NC(=O)/C=C(\O)C(F)(F)F)cc1SCC(F)(F)F [XXXI-1, 4,4,4-Trifluoro-N-{2-fluoro-4-methyl-5-[(2,2,2-trifluoroethyl)sulphanyl]phenyl}-3-hydroxybut-2-enamide]	–	chromatographic logP [1, 4]: 2.77; chromatographic logP [1, 3]: 1.43
–	Cc1cc(C)c(SCC(F)(F)F)cc1NC(=O)/C=C(\O)C(F)(F)F [XXXI-2, N-[2,4-Dimethyl-5-(2,2,2-trifluoroethylsulphanyl)phenyl]-4,4,4-trifluoro-3-hydroxybut-2-enamide]	–	chromatographic logP [1, 4]: 2.87
3.13	O=C(C=C(O)C(F)(F)F)Nc1cc(SCC(F)(F)F)c(Cl)cc1Cl [XXXI-3]	–	–
2.86	O=C(C=C(O)C(F)(F)F)Nc1cc(SCC(F)(F)F)c(Cl)cc1F [XXXI-4]	–	logP (neutral) [1]: 1.45
2.93	O=C(C=C(O)C(F)(F)F)Nc1cc(SCC(F)(F)F)c(Br)cc1F [XXXI-5]	–	–
2.80	Cc1ccc(NC(=O)C=C(O)C(F)(F)F)cc1SCC(F)(F)F [XXXI-6]	–	–
2.84	O=C(C=C(O)C(F)(F)F)Nc1ccc(Cl)c(SCC(F)(F)F)c1 [XXXI-7]	–	–
3.01	Cc1cc(Cl)c(NC(=O)C=C(O)C(F)(F)F)cc1SCC(F)(F)F [XXXI-8]	–	logP (neutral) [1]: 1.44
2.47	Cc1cc(F)c(NC(=O)C=C(O)C(F)F)cc1SCC(F)(F)F [XXXI-9]	–	–
2.53	Cc1cc(C)c(SCC(F)(F)F)cc1NC(=O)C=C(O)C(F)F [XXXI-10]	–	–
2.72	Cc1cc(F)c(NC(=O)C=C(O)C(C)(F)F)cc1SCC(F)(F)F [XXXI-11]	–	–
–	Cc1cc(C)c(SCC(F)(F)F)cc1NC(=O)C=C(O)C(F)(F)C(F)(F)F [XXXI-14]	–	logP (neutral) [1]: 1.63
